{"source": "patent US7521474B2", "about": "“Biologically active lasonolide compounds” (priority 2003, dated 2009)", "assay_type_in_all_cases": "cell-based", "key": {"[1]": {"test_system": "Candida albicans (ATCC strain 44506)", "assay": "Broth dilution assay (MIC)", "conditions": "37° C.; for MIC: Candida albicans, ATCC44506, 24 h; for Minimum inhibitory concentration (MIC): 24 hours", "experimental": "(§1) The antifungal activity of lasonolides C and F against Candida albicans (American Type Culture Collection strain 44506) was determined through the use of both agar diffusion and broth dilution assays.\nBroth dilution assays were performed as standard 96-well microtiter assays in a total volume of 50 μl with a seeding density of 10^3 cells/ml. The concentration range for test compound ranged from 50 to 3 μg/ml as two-fold dilutions. […] The Minimum inhibitory concentration (MIC) of Lasonolide F (IV) against Candida albicans in SDB broth is 50 μg/ml while in RPMI broth it is greater than 50 μg/ml."}, "[2]": {"test_system": "NCI/ADR-RES (formerly MCF-7/ADR) human breast cell line", "assay": "Antiproliferative MTT assay, NCI/ADR-RES", "conditions": "72-h exposure", "experimental": "(§2) The lasonolide compounds were analyzed as to their effects on proliferation of A549 human lung adenocarcinoma, PANC-1 human pancreatic cancer and NCI-ADR-RES tumor cell lines. A549 human lung adenocarcinoma, PANC-1 pancreatic cancer cells and the NCI/ADR-RES (formerly MCF-7/ADR) human breast cell lines were obtained from the American Type Culture Collection (Rockville, Md.).\n(§3) All cell lines are maintained in Roswell Park Memorial Institute (RPMI) medium 1640 supplemented with 100 U/mL penicillin 100 μg/ml streptomycin, 60 μg/ml L-glutamine, 18 mM HEPES, 0.05 mg/mL gentamycin and 10% fetal bovine serum (for the PANC-1 cell line the media is also supplemented with 100 μg/ml sodium pyruvate and 2.5 mg/ml glucose). Cell lines are cultured in plastic tissue culture flasks and kept in an incubator at 37° C. in humidified air containing 5% CO2.\n(§4) To assess the antiproliferative effects of agents against the various cell lines, 200 μl cultures (96-well tissue culture plates, Nunc, Denmark) are first established at 3×10^4 cells/ml for adherent lines in tissue culture medium and incubated for 24 hr at 37° C. in 10% CO2 in air in order to allow cells to attach. A volume of 100 μl of medium is removed from each test well and 100 μl of medium containing serial, two-fold dilutions of the test agent is added to each well containing tumor cells. Medium without drug is also added to wells containing tumor cells which serve as no drug controls.\n(§5) Positive drug controls are included to monitor drug sensitivity of each of the cell lines. These include varying dilutions of 5-fluorouracil, and doxorubicin. After 72-h exposure, tumor cells are enumerated using 3-[4,5-Dimethylthiazol-2-yl]-2,5-diphenyltetrazolium bromide (MTT) (M. C. Alley, et al., Cancer Res. 48:589, 1988) as follows:\n(§6) A volume of 75 μl of warm growth media containing 5 mg/ml MTT is added to each well, cultures returned to the incubator, and left undisturbed for 3 hours. To spectrophotometrically quantitate formation of reduced formazan, plates are centrifuged (900×g, 5 minutes), culture fluids removed by aspiration, and 200 μl of acidified isopropanol (2 ml concentrated HCl/liter isopropanol) added per well. The absorbance of the resulting solutions is measured at 570 nm with a plate reader (Spectra II (Tecan Laboratories). The absorbance of tests wells is divided by the absorbance of drug-free wells, and the concentration of agent that results in 50% of the absorbance of untreated cultures (IC50) is determined by linear regression of logit-transformed data (D. J. Finney, Statistical Method in Biological Assay, third ed., pp.316-348, Charles Griffin Co., London, 1978). A linear relationship between tumor cell number and formazan production has been routinely observed over the range of cell densities observed in these experiments. The two standard drug controls (indicated above) are included in each assay to monitor the drug sensitivity of each of the cell lines and IC50 values are determined for each drug-cell combination."}, "[3]": {"test_system": "A549 human lung adenocarcinoma", "assay": "Antiproliferative MTT assay, A549", "experimental": "as §2, §3, §4, §5, §6"}, "[4]": {"test_system": "PANC-1 human pancreatic cancer", "assay": "Antiproliferative MTT assay, PANC-1", "experimental": "as §2, §3, §4, §5, §6"}, "[5]": {"test_system": "Candida albicans (ATCC strain 44506)", "assay": "Agar (disk) diffusion assay", "conditions": "37° C., 24 hours", "experimental": "as §1\nAgar diffusion assays were performed using Sabouraud Dextrose agar plates seeded with the test microbe at 10^5/ml. Disks (6.35 mm, Schliecher and Schuell) were impregnated with 25 μg of test compound, allowed to dry and then placed on the agar surface. After incubation at 37° C. for 24 hours the zones of growth inhibition were determined. A control disk containing 100IU nystatin was run on the same plate as the test compound: the zone of inhibition was 28 mm."}, "[6]": {"conditions": "Homo sapiens, NCI/ADR-RES, value in parentheses"}, "[7]": {"conditions": "Homo sapiens, A549, 72-h exposure"}, "[8]": {"conditions": "Homo sapiens, A549, 72-h exposure, value in parentheses"}, "[9]": {"conditions": "Homo sapiens, PANC-1, 72-h exposure"}, "[10]": {"conditions": "Homo sapiens, PANC-1, 72-h exposure, value in parentheses"}, "[11]": {"conditions": "72-h exposure, value in parentheses"}}, "note": "Like-named read-outs stand apart in the source and are kept apart here.", "data": [{"molecule": "Nc1nc(=O)[nH]cc1F", "note": "[5-fluorocytosine, reference compound]", "values": [{"measurement": "MIC", "setting": "[1]; antifungal control, broth not stated, read-out: MIC", "value": 0.62, "unit": "µg/mL"}]}, {"molecule": "CCOC(=O)C(O)C/C=C\\C[C@@H]1O[C@@H]2/C=C/C/C=C/C(C)=C\\[C@H]3O[C@@H](C/C=C/C=C/C(=O)O[C@H](C2)[C@@]1(C)CO)C[C@H](O)[C@H]3C", "note": "(some centres unmarked) [Lasonolide E (III), Lasonolide E]", "values": [{"measurement": "IC50", "setting": "[2]; Homo sapiens, NCI/ADR-RES", "value": "> 5", "unit": "µg/mL"}, {"measurement": "IC50", "setting": "[2]; [6]", "value": "> 8000", "unit": "nM"}, {"measurement": "IC50", "setting": "[3]; [7]", "value": 0.19, "unit": "µg/mL"}, {"measurement": "IC50", "setting": "[3]; [8]", "value": 310, "unit": "nM"}, {"measurement": "IC50", "setting": "[4]; [9]", "value": 0.35, "unit": "µg/mL"}, {"measurement": "IC50", "setting": "[4]; [10]", "value": 570, "unit": "nM"}]}, {"molecule": "CC1=C/[C@H]2O[C@@H](C/C=C/C=C/C(=O)O[C@@H]3C[C@@H](/C=C/C\\C=C\\1)O[C@@H](C/C=C\\CC(O)C(=O)O)[C@]3(C)CO)C[C@H](O)[C@H]2C", "note": "(some centres unmarked) [Lasonolide F (IV), Lasonolide F]", "values": [{"measurement": "zone of inhibition at 25 µg/mL", "setting": "[5]; Candida albicans, ATCC44506, tested at 25 μg/ml (disk 6.35 mm impregnated with 25 μg), read-out: growth inhibitory zone", "value": 10, "unit": "mm"}, {"measurement": "MIC", "setting": "[1]; RPMI broth, read-out: Minimum inhibitory concentration (MIC)", "value": "> 50", "unit": "µg/mL"}, {"measurement": "MIC", "setting": "[1]; SDB broth, read-out: Minimum inhibitory concentration (MIC)", "value": 50, "unit": "µg/mL"}]}, {"molecule": "CC1=C/[C@H]2O[C@@H](C/C=C/C=C/C(=O)O[C@@H]3C[C@@H](/C=C/C\\C=C\\1)O[C@@H](C/C=C\\CCO)[C@]3(C)CO)C[C@H](O)[C@H]2C", "note": "[Lasonolide D (II), Lasonolide D]", "values": [{"measurement": "IC50", "setting": "[2]; Homo sapiens, NCI/ADR-RES", "value": "> 5", "unit": "µg/mL"}, {"measurement": "IC50", "setting": "[2]; [6]", "value": "> 9000", "unit": "nM"}, {"measurement": "IC50", "setting": "[3]; [7]", "value": 2.4, "unit": "µg/mL"}, {"measurement": "IC50", "setting": "[3]; [8]", "value": 4500, "unit": "nM"}, {"measurement": "IC50", "setting": "[4]; [9]", "value": 2.6, "unit": "µg/mL"}, {"measurement": "IC50", "setting": "[4]; [10]", "value": 4900, "unit": "nM"}]}, {"molecule": "Lasonolide C [Lasonolide C (I)]", "values": [{"measurement": "NCI ADR-RES IC50", "setting": "[2]", "value": 0.8, "unit": "µg/mL"}, {"measurement": "IC50", "setting": "[2]; value in parentheses", "value": 1120, "unit": "nM"}, {"measurement": "growth inhibitory zone", "setting": "[5]; tested at 25 μg/ml (disk 6.35 mm impregnated with 25 μg)", "value": 15, "unit": "mm"}, {"measurement": "Minimum inhibitory concentration (MIC)", "setting": "[1]; RPMI broth", "value": 12.5, "unit": "µg/mL"}, {"measurement": "Minimum inhibitory concentration (MIC)", "setting": "[1]; SDB broth", "value": 5, "unit": "µg/mL"}, {"measurement": "A549 IC50", "setting": "[3]; 72-h exposure", "value": 0.095, "unit": "µg/mL"}, {"measurement": "IC50", "setting": "[3]; [11]", "value": 130, "unit": "nM"}, {"measurement": "PANC-1 IC50", "setting": "[4]; 72-h exposure", "value": 0.27, "unit": "µg/mL"}, {"measurement": "IC50", "setting": "[4]; [11]", "value": 380, "unit": "nM"}]}, {"molecule": "C[C@@H]1[C@H](O)[C@@H](C)/C=C/C=C/CC/C=C/C=C/C=C/C=C/C(O[C@H]2O[C@H](C)[C@@H](O)[C@H](N)[C@@H]2O)CC2O[C@](O)(CC(O)C(O)CCC(O)CC(O)CC(O)CC(=O)O[C@H]1C)CC(O)C2C(=O)O", "note": "(some centres unmarked) [nystatin, reference compound]", "values": [{"measurement": "zone of inhibition", "setting": "[5]; control disk containing 100IU, same plate", "value": 28, "unit": "mm"}]}]}
